In patent US20070190029A1, “Listeria-induced immunorecruitment and activation, and methods of use thereof” (Cerus Corporation, priority 2005, published 2007):

Key:
serum cytokines = assay: Cytokine concentrations in mouse serum after administering Listeria, poly(I:C), or CpG (Table 7); format: in vivo
Description: Cytokine levels were measured in serum, where the serum was from blood harvested from mice at various times after administering Listeria or a toll-like receptor (TLR) agonist. The treatment groups were (1) Salt water (HBSS) treatment only (0.2 ml); (2) L. monocytogenes ΔactAΔinlB (1×10^7 bacteria); (3) L. monocytogenes Δhly (deleted in the gene encoding listeriolysin) (3×10^8 bacteria); (4) L. monocytogenes killed but metabolically active (KBMA) (3×10^8 bacteria) (see, e.g. Brockstedt, et al. (2005) Nat. Medicine 11:853-860); (5) heat killed L. monocytogenes ΔactAΔinlB (3×10^8 bacteria); (6) poly(I:C) (0.1 mg); or (7) CpG (0.1 mg). Peripheral blood was withdrawn at various times, and assessed for cytokine concentration (Mouse Cytokine/Chemokine LINCOplex® Kit Catalog # MCYTO-70K; Linco, St. Charles, Mo.; or BD® Cytometric Bead Array, San Jose, Calif.). CpG was CpG ODN 1826, purchased through Invivogen. Cytokine levels were measured on samples withdrawn at 2, 4, 8, 12, and 24 hours after administration of bacteria or TLR agonist.
The cytokines measured included granulocyte-colony stimulating factor (G-CSF); interferon-gamma (IFN-gamma); interleukin-1alpha (IL-1alpha); interleukin-6 (IL-6); interleukin-10 (IL-10); interleukin-12p70 (IL-12p70); interleukin-13 (IL-13); IP-10; KC (mouse ortholog of IL-8); MCP-1; MIP-1α; and TNF.

CT26 tumor cells [1] = assay: Survival of mice with CT26 hepatic tumors (hemispleen injection model) after attenuated Listeria, with or without CTX; format: in vivo, BALB/c mice; details: FIG. 1D
Description: Hemispleen injections were as follows. BALB/c mice were anaesthetized and the spleen exposed. The spleen was divided into two hemispleens, leaving the vascular pedicles intact. Using a 27 gauge needle, about 0.1 million viable CT26 cells in 0.4 ml HBSS buffer were injected into the spleen, thus allowing cells to flow to the liver. The vascular pedicle draining the cancer-contaminated hemispleen was ligated with a clip, and the CT26-contaminated hemispleen was excised, leaving a functional hemispleen free of tumor cells.
Hepatic tumors were induced in mice as follows. CT26 tumor cells were administered to all mice on day zero (t=0 days) to initiate hepatic tumor formation.
The following concerns the number of doses of Listeria given to the mice. “1×” means that the indicated Listeria strains were administered only at t=3 days post tumor implant (only one dose). “3×” means that the indicated Listeria strains were administered at t=3 days, 6 days, and 9 days. “5×” means that the indicated Listeria strains were administered at t=3 days, 6 days, 9 days, 12 days, and 15 days. The number of administered Listeria ΔactA cells was about 1×10^7 colony forming units (CFU) while the number of Listeria ΔactAΔinlB given was about 2×10^7 CFU (FIG. 1A). […]

CT26 tumor cells [2] = assay: Long-term adaptive immunity: subcutaneous CT26 re-challenge, Elispot, tumor volume (FIGS. 15, 16); format: in vivo, mice
Description: Mice were initially inoculated (t=0 days) with CT26 tumor cells by way of the hemispleen model, and then treated with:
(1) No treatment with any therapeutic agent (“naive mice”);
(2) Listeria ΔactAΔinlB (3 cycles of Listeria ΔactAΔinlB beginning at t=3 days after inoculation with the CT26 tumor cells. Administration of Listeria was once weekly for three weeks. The Listeria ΔactAΔinlB had not been engineered to express any tumor antigen;
(3) GM-CSF vaccine with Listeria ΔactAΔinlB (1 injection of Listeria ΔactAΔinlB at t=6 days). Administration of the GM-CSF vaccine was started three days after injecting the tumor cells in the hemispleen, that is, on days 3, 6, and 10; or
At t=100 days (shortly before the re-challenge) and at t=107 days (post re-challenge), surviving mice in each group were assessed for long-term immunity (Elispot assays) to the immunodominant antigen of the CT26 cells (AH1 antigen). The first Elispot assay (pre re-challenge) served as a baseline assay for use in assessing adaptive immune response. The second Elispot assay (107 days; post re-challenge) was used to assess adaptive immune response. At t=102 days, all mice were inoculated with CT26 tumor cells by way of a subcutaneous re-challenge. […]
Tumor volume was assessed in the days following the CT26 tumor cell re-challenge (FIG. 16). […] The dimensions of these tumors were measured topically.

Poly (I:C)
IFN-gamma concentration in mouse serum (serum cytokines; 4-8 h (plateau)): (25-30 pg/ml) | G-CSF concentration in mouse serum (serum cytokines; 8-12 h (peak)): (6,000 pg/ml), | IL-1alpha concentration in mouse serum (serum cytokines; 8-12 h (plateau)): (170-300 pg/ml) | G-CSF concentration in mouse serum (serum cytokines; 2 h): to 1200 pg/ml | IFN-gamma concentration in mouse serum (serum cytokines; 2 h): to 15 pg/ml | IL-6 concentration in mouse serum (serum cytokines; 2 h): (7500 pg/ml) | IL-12p70 concentration in mouse serum (serum cytokines; 2 h): 300 at 2 h pg/ml | IP-10 concentration in mouse serum (serum cytokines; 2 h): to 1400 pg/ml | KC concentration in mouse serum (serum cytokines; 2 h): to 900 pg/ml | MCP-1 concentration in mouse serum (serum cytokines; 2 h): to 29,000 pg/ml | MIP-1a concentration in mouse serum (serum cytokines; 2 h): to 1800 pg/ml | TNF concentration in mouse serum (serum cytokines; 2 h): to 1500 pg/ml | IL-13 concentration in mouse serum (serum cytokines; 2 h-24 h): Basal | IL-6 concentration in mouse serum (serum cytokines; 4 h): (5000 pg/ml | IP-10 concentration in mouse serum (serum cytokines; 4 h (peak)): 4 h (2100 pg/ml), | IL-10 concentration in mouse serum (serum cytokines; 4 h, 12 h, 24 h): 8 h. Basal | IL-13 concentration in mouse serum, sporadic spikes in some mice (serum cytokines; 4 h, 12 h, 24 h): about 200 pg/ml) | KC concentration in mouse serum (serum cytokines; 4 h-24 h): near basal | MCP-1 concentration in mouse serum (serum cytokines; 8 h): (10,000 pg/ml | IL-6 concentration in mouse serum (serum cytokines; 12 h): near basal | MCP-1 concentration in mouse serum (serum cytokines; 12 h and 24 h): (1000 pg/ml) | IP-10 concentration in mouse serum (serum cytokines; 24 h): drop (800 pg/ml | IL-10 concentration in mouse serum (serum cytokines; sporadic spikes found at 2 h and at 8 h): of 14-80 pg/ml

O=P1(N(CCCl)CCCl)NCCCO1 (stereo not drawn) [CTX, cyclophosphamide]
survival (figure legend) (CT26 tumor cells [1]; CTX at t=4 days, Listeria from day 5, 6 or 7): some increase in survival | survival (CT26 tumor cells [1]; CTX only, 50 mg/kg i.p. day 4, t=50 days): about 60% | Elispot response to AH1 after CT26 re-challenge (CT26 tumor cells [2]; FIG. 15, t=107 days): moderate | mice tumor free following the re-challenge (CT26 tumor cells [2]; subcutaneous re-challenge with 2×10^5 CT26 cells at t=102 days): about 50%
